{"source": "patent US8329756B2", "about": "“Drug for treatment of colon cancer” (Oncophor, LLC, priority 2009, dated 2012)", "test_system": "DLD-1 cells", "test": "in vitro test with cancerous DLD1 colon cells treated continuously", "assay_type": "cell-based", "settings": "continuous treatment, about 125 μg·ml of Formula (2)", "method": "FIG. 1 illustrates the survival percentage colon DLD-1 carcinoma cells […] after continuous treatment with Formula (2).\nFIG. 1 illustrates the results of an in vitro test with cancerous DLD1 colon cells treated continuously with Formula (2). The survival percentage for DLD-1 cells decreases from 100 percent without treatment to less than 1 percent in the presence of continuous treatment of about 125 μg·ml of Formula (2)."}
{"smiles": "Cc1cccc(NC(C)c2ccccc2C)c1", "note": "(stereo not shown) [Formula (2), 3-methyl-N-(1-o-tolylethyl)benxenamine]", "values": [{"measurement": "survival percentage for DLD-1 cells", "value": "less than 1%"}]}
